Like-named read-outs stand apart in the source and are kept apart here.
System: ATF4 translation
Assay: ATF4 Nano Luciferase reporter integrated stress response (ISR) assay in H4 ATF4-NLuc cells
Type: cell-based, human
Details: Homo sapiens, 0.5 h, H4 ATF4-NLuc (clone 17) cells, compound 30 minutes, then sodium arsenite for 6 additional hours, luminescence readout
Excerpt: Cellular stress leads to activation of the integrated stress response pathway through one of four eukaryotic initiation factor 2a kinases and halts global translation, while allowing for the translation of select transcripts like ATF4 (activating transcription factor 4) that are important for the response to cellular stress. During normal conditions, small open reading frames (ORFs) in the 5′ UTR of ATF4 occupy the ribosome and prevent translation of the coding sequence of ATF4. During stress conditions however, the ribosome scans past these upstream ORFs and preferentially begins translation at the coding sequence of ATF4. In this way, the translation, and thus protein level of ATF4 is a readout of ISR pathway activation. Thus, a fusion of the uORFs and the beginning of the coding sequence of ATF to a common cellular reporter like nano-luciferase allows for a sensitive and high-throughput readout of ISR pathway activity.
Compounds as provided herein were tested in the following assay. The ATF4 Nano Luciferase reporter was constructed by fusing the human full length 5′ untranslated region (5′-UTR) and a small portion of the coding sequence of the ATF4 gene upstream of the Nano Luciferase (NLuc) coding sequence lacking it's start codon. Specifically, nucleotides +1 through +364 (relative to the transcriptional start site) of ATF4 transcript variant 2 (NCBI NM_182810.2) flanked 5′ by EcoRI and 3′ by BamHI restriction enzyme sites were synthesized and cloned into the EcoRI/BamHI cloning sites of pLVX-EF1a-IRES-Puro lentivirus vector (Clontech). Lentiviral particles were produced with Lenti-X single shots (VSV-G, Clontech) according to the manufacturer's instructions and used to transduce a human H4 neuroglioma cell line (ATCC HTB-148). H4 cells were selected with 1.25 μg/mL Puromycin, and clonal cell lines generated by limiting dilution. We utilized this cell line to generate an integrated stress response (ISR) assay to evaluate the activity of ISR pathway inhibitors via luminescence readout. The H4 ATF4-NLuc (clone 17) cell line is plated at a density of […] in 96-well or 384-well respectively in DMEM+[…]. 24-hours later test compounds diluted in dimethyl sulfoxide (DMSO) are added for 30 minutes at 37° C., followed by ISR pathway activation with […] sodium arsenite aqueous solution for 6 additional hours. Nano Glo luciferase reagent (N1150, Promega) is added according to manufacturer instructions and the luminescence signal (corresponding to the level of ATF4 translation and thus ISR pathway activation) is read with a standard plate reader with luminescence detection capabilities. […] In the tables below, activity of the tested compounds is provided, and in Table 3 as follows: […]; ++=IC50 1-10 μM; +=IC50>10 μM.

[1] = read-out: Biological Example 1 (ATF4 translation, IC50 nM)

IC50 (read-out: Activity) [nM]	IC50 [1] [nM]	SMILES
< 1000	2.4	O=C(COc1ccc(C(F)(F)F)cc1)N[C@@H]1CC[C@@H](c2nnc([C@H]3C[C@@H](OC(F)(F)F)C3)o2)OC1 [Example 40, N-[(3R,6S)-6-[5-[3-cis-(trifluoromethoxy)cyclobutyl]-1,3,4-oxadiazol-2-yl]tetrahydropyran-3-yl]-2-[4-(trifluoromethyl)phenoxy]acetamide]
< 1000	13.5	O=C(COc1ccc(Cl)cc1)N[C@H]1CO[C@H](c2nnc([C@H]3C[C@@H](OC(F)(F)F)C3)o2)CC1(F)F [Example 41, N-[(3S,6S)-4,4-difluoro-6-[5-[3-cis-(trifluoromethoxy)cyclobutyl]-1,3,4-oxadiazol-2-yl]tetrahydropyran-3-yl]-2-(4-chlorophenoxy)acetamide]
< 1000		O=C(N[C@@H]1CC[C@@H](c2nnc(C3CC(OC(F)(F)F)C3)o2)OC1)c1cn2ccc(Br)cc2n1 (stereo partly drawn) [Example 42, 7-bromo-N-((3R,6S)-6-(5-(3-cis-(trifluoromethoxy)cyclobutyl)-1,3,4-oxadiazol-2-yl)tetrahydro-2H-pyran-3-yl)imidazo[1,2-a]pyridine-2-carboxamide]
< 1000		O=C(N[C@@H]1CC[C@@H](c2nnc(C3CC(OC(F)(F)F)C3)o2)OC1)c1nc2cc(Cl)ccc2s1 (stereo partly drawn) [Example 43, 5-chloro-N-((3R,6S)-6-(5-(3-cis-(trifluoromethoxy)cyclobutyl)-1,3,4-oxadiazol-2-yl)tetrahydro-2H-pyran-3-yl)benzo[d]thiazole-2-carboxamide]
< 1000		O=C(N[C@@H]1CC[C@@H](c2nnc(C3CC(OC(F)(F)F)C3)o2)OC1)c1cc2ccc(Cl)cc2cn1 (stereo partly drawn) [Example 44, 7-chloro-N-((3R,6S)-6-(5-(3-cis-(trifluoromethoxy)cyclobutyl)-1,3,4-oxadiazol-2-yl)tetrahydro-2H-pyran-3-yl)isoquinoline-3-carboxamide]
< 1000		O=C(N[C@@H]1CC[C@@H](c2nnc(C3CC(OC(F)(F)F)C3)o2)OC1)C1CCc2cc(Cl)ccc2O1 (stereo partly shown) [Example 45]
< 1000		O=C(COc1ccc(Cl)cc1)N[C@@H]1CC[C@@H](C(O)COC2CC(OC(F)(F)F)C2)OC1 (stereo partly shown) [Example 46]
< 1000		O=C(COC1CC(OC(F)(F)F)C1)NC12CCC(c3cc(-c4ccc(Cl)c(F)c4)no3)(CC1)OC2 (stereo not shown) [Example 47]
< 1000		O=C(COC1CC(OC(F)(F)F)C1)NC12CCC(c3cnn(-c4ccc(Cl)c(F)c4)c3)(CC1)OC2 (stereo not shown) [Example 48]
> 10000		O=C(COC1CC(OC(F)(F)F)C1)NC12CCC(C3CC(c4ccc(Cl)c(F)c4)=NO3)(CC1)OC2 (stereo not shown) [Example 49]
< 1000	38	O=C(COC1CC(OC(F)(F)F)C1)N[C@@H]1CC[C@@H](c2cc(-c3ccc(Cl)c(F)c3)no2)OC1 (stereo partly shown) [Example 50]
< 1000		O=C(N[C@@H]1CC[C@@H](c2nnc(C3CC(OC(F)(F)F)C3)o2)OC1)N1CCC(OC(F)(F)F)C1 (stereo partly shown) [Example 51]
< 1000	43	O=C(COC1CC(OC(F)(F)F)C1)N[C@@H]1CC[C@@H](c2ccn(-c3ccc(Cl)cc3)n2)OC1 (stereo partly shown) [Example 52]
< 1000		O=C(COc1ccc(F)cc1)N[C@@H]1CC[C@@H](c2noc(C3CC(OC(F)(F)F)C3)n2)OC1 (stereo partly shown) [Example 53]
< 1000		O=C(COC1CC(OC(F)(F)F)C1)N[C@@H]1CC[C@@H](c2cc(-c3ccc(Cl)cc3)no2)OC1 (stereo partly shown) [Example 54]
	22.7	O=C(COc1ccc(Cl)c(F)c1)N[C@@H]1CC[C@@H](c2nnc(COC(F)(F)F)o2)OC1 [Example 55]
< 1000		O=C(N[C@@H]1CC[C@@H](c2nnc(C3CC(OC(F)(F)F)C3)o2)OC1)c1ccc2cc(Cl)ccc2n1 (stereo partly drawn) [Example 56, 6-chloro-N-[(3R,6S)-6-[5-[3-cis-(trifluoromethoxy)cyclobutyl]-1,3,4-oxadiazol-2-yl]tetrahydropyran-3-yl]quinoline-2-carboxamide]
< 1000		O=C(N[C@@H]1CC[C@@H](c2nnc(C3CC(OC(F)(F)F)C3)o2)OC1)c1ccc2cc(F)ccc2n1 (stereo partly drawn) [Example 57, 6-fluoro-N-((3R,6S)-6-(5-(3-cis-(trifluoromethoxy)cyclobutyl)-1,3,4-oxadiazol-2-yl)tetrahydro-2H-pyran-3-yl)quinoline-2-carboxamide]
< 1000	3.7	O=C(COc1ccc(Cl)c(F)c1)N[C@@H]1CC[C@@H](c2nc([C@H]3C[C@@H](OC(F)(F)F)C3)no2)OC1 [Example 58, 2-(4-chloro-3-fluorophenoxy)-N-((3R,6S)-6-(3-(3-cis-(trifluoromethoxy)cyclobutyl)-1,2,4-oxadiazol-5-yl)tetrahydro-2H-pyran-3-yl)acetamide]
< 1000		O=C(N[C@H]1CO[C@H](c2nnc(C3CC(OC(F)(F)F)C3)o2)CC1(F)F)c1ccc2cc(F)ccc2n1 (stereo partly drawn) [Example 59, N-((3S,6S)-4,4-difluoro-6-(5-(3-cis-(trifluoromethoxy)cyclobutyl)-1,3,4-oxadiazol-2-yl)tetrahydro-2H-pyran-3-yl)-6-fluoroquinoline-2-carboxamide]
< 1000	3.5	O=C(N[C@@H]1CC[C@@H](c2nnc(C3CC(OC(F)(F)F)C3)o2)OC1)c1ccc2cc(C(F)(F)F)ccc2n1 (stereo partly drawn) [Example 60, N-((3R,6S)-6-(5-(3-cis-(trifluoromethoxy)cyclobutyl)-1,3,4-oxadiazol-2-yl)tetrahydro-2H-pyran-3-yl)-6-(trifluoromethyl)quinoline-2-carboxamide]
< 1000	14.4	O=C(COc1ccc(C(F)(F)F)cc1)N[C@H]1CO[C@H](c2nnc(C3CC(OC(F)(F)F)C3)o2)CC1(F)F (stereo partly drawn) [Example 61, N-((3S,6S)-4,4-difluoro-6-(5-(3-cis-(trifluoromethoxy)cyclobutyl)-1,3,4-oxadiazol-2-yl)tetrahydro-2H-pyran-3-yl)-2-(4-(trifluoromethyl)phenoxy)acetamide]
< 1000		O=C(COc1ccc(Cl)c(F)c1)N[C@H]1CO[C@H](c2nnc(C3CC(OC(F)(F)F)C3)o2)CC1(F)F (stereo partly drawn) [Example 62, 2-(4-chloro-3-fluorophenoxy)-N-((3S,6S)-4,4-difluoro-6-(5-(3-cis-(trifluoromethoxy)cyclobutyl)-1,3,4-oxadiazol-2-yl)tetrahydro-2H-pyran-3-yl)acetamide]
< 1000		O=C(N[C@@H]1CC[C@@H](c2nnc(C3CC(OC(F)(F)F)C3)o2)OC1)[C@@H]1CCc2cc(F)ccc2O1 (stereo partly drawn) [Example 66, 6-fluoro-N-((3R,6S)-6-(5-(3-cis-(trifluoromethoxy)cyclobutyl)-1,3,4-oxadiazol-2-yl)tetrahydro-2H-pyran-3-yl)chroman-2-carboxamide]
< 1000	3.1	O=C(COc1ccc(Cl)cc1)N[C@H]1CO[C@H](c2nnc(C3CC(OC(F)(F)F)C3)o2)C[C@@H]1F (stereo partly drawn) [Example 67, 2-(4-chlorophenoxy)-N-((3S,4S,6S)-4-fluoro-6-(5-(3-cis-(trifluoromethoxy)cyclobutyl)-1,3,4-oxadiazol-2-yl)tetrahydro-2H-pyran-3-yl)acetamide]
< 1000		O=C(COc1ccc(Cl)cc1)N[C@H]1CO[C@H](c2nnc(C3CC(OC(F)(F)F)C3)o2)[C@@H](F)C1 (stereo partly drawn) [Example 68, 2-(4-chlorophenoxy)-N-((3R,5S,6R)-5-fluoro-6-(5-(3-cis-(trifluoromethoxy)cyclobutyl)-1,3,4-oxadiazol-2-yl)tetrahydro-2H-pyran-3-yl)acetamide]
< 1000	8.9	O=C(N[C@@H]1CC[C@@H](c2nnc(C3CC(OC(F)(F)F)C3)o2)OC1)c1ccc2cc(F)c(F)cc2n1 (stereo partly drawn) [Example 75, 6,7-difluoro-N-((3R,6S)-6-(5-(3-cis-(trifluoromethoxy)cyclobutyl)-1,3,4-oxadiazol-2-yl)tetrahydro-2H-pyran-3-yl)quinoline-2-carboxamide]
< 1000		O=C(N[C@@H]1CC[C@@H](c2nnc(C3CC(OC(F)(F)F)C3)o2)OC1)c1ccc2c(F)c(F)ccc2n1 (stereo partly shown) [Example 76]

Reference: patent US12139478B2, “Compounds, compositions and methods” (Denali Therapeutics Inc., priority 2017, dated 2024)
